In patent US20260008862A1, “Bispecific Anti-BCMA x Anti-CD3 Antibodies and Uses Thereof” (Regeneron Pharmaceuticals, Inc., priority 2018, published 2026):
Where two headings read alike, the source gives them in different places.

Legend:
[1] = test system: Jurkat/NFATLuc.3C7 cells + OPM-2 cells; experiment: Jurkat/NFATLuc reporter bioassay with OPM-2 cells; assay type: cell-based; details: highest RLU / lowest RLU
Method: (§1) Activity of the anti-BCMA×anti-CD3 bispecific antibodies were assessed in a Jurkat/NFATLuc reporter bioassay utilizing several cell lines with varying levels of BCMA surface expression. The Jurkat cells were engineered to express an NFAT-luciferase reporter (Jurkat/NFATLuc.3C7), and 50,000 Jurkat reporter cells were combined with 50,000 BCMA positive (Daudi, MM1-S, NCI-H929, OPM-2, RPMI-8226, MOLP-8, or Raji) or BCMA negative (HEK293) cells in Thermo Nunclon delta 96 well white microwell plates (Thermo Scientific, Cat #136102) in 50 ul of assay media (RPMI media with 10% FBS and 1% P/S/G). Three-fold serial dilutions of the BCMA×CD3 bispecific antibodies (mAb25441 D or mAb25442D), or a bivalent anti-BCMA antibody (mAb21581) were immediately added in 50 μL of assay buffer. The plates were gently agitated and incubated in a 37° C., 5% CO2 incubator for 4-6 hours. NFAT-Luciferase activity was determined using Promega One-Glo (Cat #E6130) and a Perkin Elmer Envision plate reader. RLU were plotted in GraphPad Prism using a four-parameter logistic equation over a 12-point response curve to calculate EC50 values. […] The signal to noise (S:N) is determined by taking the ratio of the highest RLU on the curve to the lowest.

[2] = test system: Jurkat/NFATLuc.3C7 cells + MM1-S cells; experiment: Jurkat/NFATLuc reporter bioassay with MM1-S cells; assay type: cell-based; details: highest RLU / lowest RLU
Method: as §1

[3] = test system: BCMA+ OPM-2-luciferase tumors; experiment: OPM-2-luciferase intravenous xenogenic tumor model, BLI (Example 15); assay type: in vivo, mouse; details: for tumor burden (in words): 0.4 mg/kg on days 21, 25 and 28
Method: (§2) To determine the in vivo efficacy of anti-BCMA×anti-CD3 bispecific antibodies (Abs), a xenogenic tumor study was performed. On day 0, immunodeficient NOD.Cg-Prkdc^scidIl2rg^tm1Wji/SzJ (NSG) mice were intravenously administered 2×10^6 BCMA^+ OPM-2 human multiple myeloma tumor cells that were engineered to also express firefly luciferase (OPM-2-luciferase cells). On day 10, the mice were intraperitoneally injected with 4×10^6 human peripheral blood mononuclear cells (PBMC) from a normal, healthy donor. […] The mice were administered these Abs twice more on days 25 and 28, for a total of three doses. Tumor growth was assessed through day 61 by measuring tumor bioluminescence (BLI) in anesthetized animals. As a positive control, a group of mice (n=5) was given only OPM-2-luciferase cells, but not PBMC or antibody.
as §2, with “Implantation and measurement” for “To determine the in vivo efficacy”, “of” for “of anti-BCMA×anti-CD3 bispecific antibodies (Abs), a”, “tumors:” for “tumor study was performed.”
Measurement of xenogenic tumor growth: BLI imaging was used to measure tumor burden. Mice were injected IP with 150 mg/kg of the luciferase substrate D-luciferin suspended in PBS. Five minutes after this injection, BLI imaging of the mice was performed under isoflurane anesthesia using the Xenogen IVIS system. Image acquisition was carried out with the field of view at D, subject height of 1.5 cm, and medium binning level with automatic exposure time determined by the Living Image Software. BLI signals were extracted using Living Image software: regions of interest were drawn around each tumor mass and photon intensities were recorded as p/s/cm2/sr.

[4] = test system: primary multiple myeloma blast cells; experiment: FACS cytotoxicity assay, autologous T cell-mediated killing of primary multiple myeloma blast cells; assay type: cell-based, human; details: for EC50: read-out: MM Lysis EC50
Method: In order to monitor the specific killing of multiple myeloma cells by flow cytometry, bone marrow mononuclear cells (BMMC) from multiple myeloma patients were plated on human stromal cells (HS5) and rested overnight at 37 C. Separately, matching patient peripheral blood mononuclear cells (PBMC) were thawed and cultured in supplemented RPMI media at 1×10^6 cells/mL overnight at 37° C. in order to enrich for lymphocytes by depleting adherent cells. The next day, BMMC were co-incubated with adherent cell-depleted naïve PBMC on stromal cells (HS5) and a serial […] dilution of BCMA×CD3 bispecific or 1-arm CD3 isotype control (starting concentration 66.7 nM) at 37° C. Cells were removed from cell culture plates at day 3, 4 or 7 and analyzed by FACS. For the assessment of specificity of killing, multiple myeloma cells were gated as single, live, CD90 negative (to exclude stromal cells), CD2 negative, CD56 positive. CD45 was low on multiple myeloma cells in most samples except MM455. Percent of live target cells was reported for the calculation of adjusted survival as follows: Adjusted survival=(R1/R2)*100, where R1=% live target cells in the presence of antibody, and R2=% live target cells in the absence of test antibody.
T cells were gated as CD2 positive, CD56 negative and either CD4 or CD8 positive. T cell activation was reported as the percent of CD25+CD4 or CD8 T cells out of total CD4 or CD8 T cells.

[5] = test system: Jurkat/NFATLuc.3C7 cells + MOLP-8 cells; experiment: Jurkat/NFATLuc reporter bioassay with MOLP-8 cells; assay type: cell-based; details: highest RLU / lowest RLU
Method: as §1

[6] = sample MM2, newly diagnosed, E:T 1.4, 7 days
[7] = sample MM369, newly diagnosed, E:T 0.3, 3 days
[8] = sample MM453, newly diagnosed, E:T 2.4, 3 days
[9] = sample MM455, progression, treated, E:T 0.4, 3 days

Row | Substance | S:N [2] | tumor burden (in words) [3] | EC50 ([4]; sample MM2, E:T 1.4, 7 days) [nM] | % MM lysis at 66 nM [4, 6] [%] | % MM lysis at 66 nM [4, 7] [%] | EC50 ([4]; sample MM453, E:T 2.4, 3 days) [nM] | % MM lysis at 66 nM [4, 8] [%] | EC50 ([4]; sample MM455, E:T 0.4, 3 days) [nM] | % MM lysis at 66 nM [4, 9] [%] | further results
1 | REGN5458: anti-BCMA×anti-CD3 bispecific antibody: BCMA HCVR of mAb21581 (SEQ 66), CD3 HCVR of mAb7221G (SEQ 90), common LCVR SEQ 82 | 165 | reduced tumor burdens to background levels in the majority of animals | 0.747 | 88 | 96 | 0.0989 | 82 | 3.67 | 63 | S:N [1]: 8
2 | REGN5459: anti-BCMA×anti-CD3 bispecific antibody: BCMA HCVR of mAb21581 (SEQ 66), CD3 HCVR of mAb7221G20 (SEQ 98), common LCVR SEQ 82 | 120 | reduced tumor burdens to background levels in the majority of animals | 7.24 | 85 | 94 | 1.19 | 80 | 79.4 | 52 | S:N [5]: 31; Radiance [p/s/cm2^2/sr] 5 days post-implantation (mean ± SEM) ([3]; 0.4 mg/kg group, 5 days post-implantation (before first dose on day 21)): 5.09E+05 ± 3.56E+04 p/s/cm2^2/sr; Radiance [p/s/cm2^2/sr] 11 days post-implantation (mean ± SEM) ([3]; 0.4 mg/kg group, 11 days post-implantation (before first dose on day 21)): 6.45E+05 ± 2.39E+04 p/s/cm2^2/sr; Radiance [p/s/cm2^2/sr] 20 days post-implantation (mean ± SEM) ([3]; 0.4 mg/kg group, 20 days post-implantation (before first dose on day 21)): 2.13E+06 ± 1.69E+05 p/s/cm2^2/sr; Radiance [p/s/cm2^2/sr] 26 days post-implantation (mean ± SEM) ([3]; 0.4 mg/kg, 26 days post-implantation): 1.28E+06 ± 7.36E+05 p/s/cm2^2/sr; Radiance [p/s/cm2^2/sr] 31 days post-implantation (mean ± SEM) ([3]; 0.4 mg/kg, 31 days post-implantation): 1.98E+06 ± 1.36E+06 p/s/cm2^2/sr; Radiance [p/s/cm2^2/sr] 34 days post-implantation (mean ± SEM) ([3]; 0.4 mg/kg, 34 days post-implantation): 4.24E+06 ± 3.69E+06 p/s/cm2^2/sr; Radiance [p/s/cm2^2/sr] 38 days post-implantation (mean ± SEM) ([3]; 0.4 mg/kg, 38 days post-implantation): 3.21E+06 ± 2.52E+06 p/s/cm2^2/sr; Radiance [p/s/cm2^2/sr] 40 days post-implantation (mean ± SEM) ([3]; 0.4 mg/kg, 40 days post-implantation): 3.84E+06 ± 3.34E+06 p/s/cm2^2/sr; Radiance [p/s/cm2^2/sr] 47 days post-implantation (mean ± SEM) ([3]; 0.4 mg/kg, 47 days post-implantation): 7.34E+05 ± 2.62E+04 p/s/cm2^2/sr; Radiance [p/s/cm2^2/sr] 54 days post-implantation (mean ± SEM) ([3]; 0.4 mg/kg, 54 days post-implantation): 6.41E+05 ± 5.96E+04 p/s/cm2^2/sr; Radiance [p/s/cm2^2/sr] 61 days post-implantation (mean ± SEM) ([3]; 0.4 mg/kg, 61 days post-implantation): 6.03E+05 ± 5.29E+04 p/s/cm2^2/sr; EC50 ([4]; sample MM369, E:T 0.3, 3 days): 0.496 nM
